Data reported in patent US8193192B2, “Heterocyclic FXR binding compounds” (Phenex Pharmaceuticals AG, priority 2006, dated 2012).
In brackets after ≈: the same amount, converted by molar mass.

Key:
PAMPA permeability assay = assay type: in vitro ADME; settings: % of compound found in the receiver compartment after 16 hours; PBS pH 7.4, 5% DMSO, 23° C.
Method: Artificial membrane permeability was determined as follows: Tested compounds were dissolved to 10 mM in 100% DMSO. Permeability of compounds was measured in PBS (pH 7.4), 5% DMSO at 23° C. Safire (Tecan) plate reader was used for measurement the UV/Vis absorption. Protocol: Dilute stocks of tested compounds and controls with PBS to 1.67 mM and mix well by pipetting, add 280 μl of PBS, 5% DMSO to acceptor plate, add 5 μl of 2% L-α-Phosphatidylcholine suspension in dodecane to the membrane of donor plate. Immediately add 98 μl of PBS to donor plate and make the sandwich with acceptor plate. Add 42 μl of tested compounds and controls dilutions to […], cover the plate, place into camera and incubate for 16 hours. Make the equilibrium plate, add 225 μl of PBS, 3.7% DMSO and 25 μl of tested compounds and controls dilutions to UV plate. After 16 hours pull the donor plate out and transfer 250 μl from acceptor plate to UV plate. Scan UV plate on Safire (Tecan) plate reader from […]. Permeability is reported in % of compound found in the receiver compartment after the incubation period. Applying this protocol, PAMPA permeabilities of examples and reference compounds were determined as follows (see Table 4): […]

[1] = target: T1, human farnesoid X receptor (FXR) alpha ligand binding domain (Homo sapiens, UniProt Q96RI1); experiment: FRET activity assay (ligand mediated cofactor peptide interaction, LANCE); assay type: biochemical; settings: FXR-LBD/SRC-1 peptide interaction
T1 construct: made in house; host or cells: E. coli BL21(DE3), vector pDEST15
T1 sequence (Q96RI1 187-472 isoform Q96RI1-2): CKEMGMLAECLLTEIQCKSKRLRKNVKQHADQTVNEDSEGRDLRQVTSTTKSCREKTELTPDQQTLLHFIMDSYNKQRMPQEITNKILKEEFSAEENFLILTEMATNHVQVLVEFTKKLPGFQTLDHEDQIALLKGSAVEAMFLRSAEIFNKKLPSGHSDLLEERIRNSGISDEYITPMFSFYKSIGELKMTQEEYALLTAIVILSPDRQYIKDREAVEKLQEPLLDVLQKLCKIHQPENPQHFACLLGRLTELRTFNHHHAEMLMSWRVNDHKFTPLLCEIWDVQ
Method: Determination of a ligand mediated cofactor peptide interaction to quantify ligand binding to the nuclear receptor Farnesoid X Receptor (FXR) was performed as follows:
Preparation of human farnesoid X receptor (FXR) alpha ligand binding domain: The human FXRalpha ligand binding domain (LBD) was expressed in E. coli strain BL21(DE3) as an N-terminally glutathione-S-transferase (GST) tagged fusion protein. The DNA encoding the FXR ligand binding domain was cloned into vector pDEST15 (Invitrogen). Expression was under control of an IPTG inducible T7 promoter. The amino acid boundaries of the ligand binding domain were amino acids 187-472 of Database entry NM_005123 (RefSeq). Expression and purification of the FXR-LBD: An overnight preculture of a transformed E. coli strain was diluted 1:20 in LB-Ampicillin medium and grown at 30° C. to an optical density of OD600=0.4-0.6. Gene expression was then induced by addition of 0.5 mM IPTG. Cells were incubated an additional 6 h at 30° C., 180 rpm. Cells were collected by centrifugation (7000×g, 7 min, room temperature). Per liter of original cell culture, cells were resuspended in 10 ml lysis buffer (50 mM Glucose, 50 mM Tris pH 7.9, 1 mM EDTA and 4 mg/ml lysozyme) and left on ice for 30 min. Cells were then subjected to sonication and cell debris removed via centrifugation (22000×g, 30 min, 4° C.). Per 10 ml of supernatant 0.5 ml prewashed Glutathione 4B sepharose slurry (Qiagen) was added and the suspension kept slowly rotating for 1 h at 4° C. Glutathione 4B sepharose beads were pelleted by centrifugation (2000 g, 15 sec, 4° C.) and washed twice in wash buffer (25 mM Tris, 50 mM KCl, 4 mM MgCl2 and 1 M NaCl). The pellet was resuspended in 3 ml elution buffer per liter of original culture (elution buffer: 20 mM Tris, 60 mM KCl, 5 mM MgCl2 and 80 mM glutathione added immediately prior to use as powder). The suspension was left rotating for 15 min at 4° C., the beads pelleted and eluted again with half the volume of elution buffer than the first time. The eluates were pooled and dialysed overnight in 20 mM Hepes buffer (pH 7.5) containing 60 mM KCl, 5 mM MgCl2 as well as 1 mM dithiothreitol and 10% (v/v) glycerol. The protein was analysed by SDS-Page.
The method measures the ability of putative ligands to modulate the interaction between the purified bacterial expressed FXR ligand binding domain (LBD) and a synthetic biotinylated peptide based on residues 676-700 of SRC-1 (LCD2, 676-700). The sequence of the peptide used was B-[…]-COOH where the N-terminus was biotinylated (B). The ligand binding domain (LBD) of FXR was expressed as fusion protein with GST in BL-21 cells using the vector pDEST15. Cells were lysed by sonication, and the fusion proteins purified over glutathione sepharose (Pharmacia) according to the manufacturers instructions. […] For ease of handling and reduction of background from compound fluorescence LANCE technology makes use of generic fluorophore labels and time resolved detection Assays were done in a final volume of 25 μl in a 384 well plate, in a Tris-based buffer (20 mM Tris-HCl pH 7.5; 60 mM KCl, 5 mM MgCl2; 35 ng/μl BSA), containing 20-60 ng/well recombinantly expressed FXR-LBD fused to GST, 200-600 nM N-terminally biotinylated peptide, representing SRC1 aminoacids 676-700, 200 ng/well Streptavidin-xIAPC conjugate (Prozyme) and 6-10 ng/well Eu W1024-antiGST (Perkin Elmer). […]

[2] = Aqueous solubility assay, Protocol A, nephelometry method; assay type: physicochemical; settings: PBS with 5% DMSO, aqueous with cosolvent or surfactant or cyclodextrin, kinetic from dmso stock, PBS pH 7.4, 5% DMSO, 23° C.
Method: (§1) Aqueous solubility of compounds was determined by nephelometry or by shake-flask method as follows:
Protocol A, Nephelometry Method:
Solubility of compounds was measured in PBS (pH 7.4), 5% DMSO at 23° C. Nepheloskan Ascent (Thermo Electron Corporation) nephelometer was used for measurement of light scattering. Tested compounds were dissolved in DMSO to 10 mM. Prior to measurement the compounds were further diluted with PBS in the wells to final compound concentrations of 100, 70, 50, 35, 25, 17, 12 and <10 μg/ml.
The plates were incubated at room temperature for 24 hours to reach equilibrium and the scattered light was measured. Assay validation: Aqueous solubility of acetylsalicylic acid was determined to validate the assay. […] Aqueous solubilities of examples and reference compounds are listed below in Table 2.

[3] = Aqueous solubility assay, Protocol B, shake-flask method; assay type: physicochemical; settings: 10 mM PBS buffer with 1% MeOH, kinetic from dmso stock, 10 mM PBS buffer pH 7.4, 1% MeOH, room temperature, read-out: Aqueous solubility pH 7.4 (μM) (±standard deviation), shake-flask method
Method: as §1
Protocol B, Shake-Flask Method:
Sample preparation: Sample and standard solution preparation is performed by mixing equal volumes of acetonitrile containing the internal standard (1 μM final concentration) with sample and calibration standard solutions (100 μl). After vigorously shaking (10 seconds) the samples are centrifuged (6000 g) for 5 minutes at 20° C. Aliquots of the particle-free supernatants are transferred to 200 μl sample vials and subsequently subjected to LC-MS/MS analysis. Assay procedure: Test concentration was 100 μM in 10 mM PBS buffer pH 7.4 with a final MeOH concentration of 1%. The volume of the incubation solution was 500 μl. Depending on each compound's solubility in MeOH, the stock concentration and the incubation concentration was adapted. The test solutions in quadruplicates were shaken at 300 rpm over a 20 hours period at room temperature, followed by centrifugation at 20000 g for 30 minutes to separate the solid phase. 100 μl of particle free sample are added to 100 μl acetonitrile containing the internal standard. The aqueous solubility of the compounds was determined by measuring the concentration of the PBS buffer supernatant by HPLC-MS/MS. Aqueous solubilities of examples and reference compounds are listed below in Table 3.

[4] = Microsomal stability assay; assay type: in vitro ADME; settings: pH 7.4; mouse liver microsomes, 37° C.
Method: Microsomal Stability Assay
In vitro assays were performed to evaluate the metabolic stability of test items in liver microsomes originating from mouse. Preparation of working standards of test items: Working solutions were prepared for each calibration level by appropriate dilution of the corresponding stock solution, depending on each compound's solubility in acetonitrile or acetonitrile/water. Calibration standards were prepared by spiking 196 μl standard matrix with 4 μl of the corresponding working solution. The standard matrix consists of 0.15 mg/ml of microsomal protein in phosphate buffer (100 mM pH 7.4), the final standard solutions contain 2% acetonitrile. The samples and standard solutions were extracted with ethyl acetate, isolation of the compounds was performed by addition of 600 μl ethyl acetate containing the internal standard (0.1 μM) to 200 μl sample and calibration standard. After vigorously shaking (10 minutes) and centrifugation (5000 g) the aqueous phase was separated by freezing in an acetone/dry ice bath and the organic phase is evaporated to dryness using a vacuum centrifuge. Samples were reconstituted in 200 μl acetonitrile/water mix (1:1 v/v) and subsequently subjected to LC-MS/MS. The incubation solution (180 μl) consisted of 90 μl of a microsomal suspension of 0.33 mg/ml of protein in phosphate buffer 100 mM pH 7.4 and 90 μl NADP-regenerating system. The reaction was initiated by the addition of 20 μl of test compound (in 20% acetonitrile) to the preincubated microsomes/buffer mix at 37° C. 200 μl samples were removed from the incubation after 0, 5, 10, and 30 minutes and processed for ethyl acetate extraction as described above. Negative controls using boiled microsomes (boiling water bath, 25 minutes) without regenerating system were run in parallel. The amount of compound in the samples is expressed as percentage of remaining compound compared to time point zero (=100%). These percentages were plotted against the corresponding time points. Intrinsic clearance (CLint) and half-life (t1/2) estimates were determined using the rate of parent disappearance and following formula (1) and (2). (1) CLint=(−k)×V×fu. (2) t1/2=ln 2/−k. Where CLint=intrinsic clearance [μl/min/mg protein], t1/2=half life [min], k=slope from the linear regression of log [test compound] versus time plot [1/min]. V=6666.7; fu=unbound fraction in the blood. Applying this protocol gave microsomal stabilities for examples and reference compounds as listed below in Table 6: […]

[5] = The Merck index, 10th edition; cited from earlier work

SMILES | PAMPA Permeability (PAMPA permeability assay) [%] | EC50 [1] [nM] | also measured
CC(C)c1onc(-c2c(Cl)cccc2Cl)c1COc1ccc(Oc2cccc(C(=O)O)c2)cn1 [Example 2, 3-(6-((3-(2,6-Dichlorophenyl)-5-isopropylisoxazol-4-yl)methoxy)pyridin-3-yloxy)benzoic acid] | 43 | ≤ 1000 | –
CC(C)c1onc(-c2c(Cl)cccc2Cl)c1COc1ccc(Oc2ccc(C(=O)O)cc2)cn1 [Example 1, 4-(6-((3-(2,6-Dichlorophenyl)-5-isopropylisoxazol-4-yl)methoxy)pyridin-3-yloxy)benzoic acid] | 54 | ≤ 1000 | solubility at 24 h [2]: > 200 µM
CC(C)c1onc(-c2c(Cl)cccc2Cl)c1COc1ccc(Oc2ccc(C(=O)O)cc2)nn1 [Example 5, 4-(6-((3-(2,6-Dichlorophenyl)-5-isopropylisoxazol-4-yl)methoxy)pyridazin-3-yloxy)benzoic acid] | – | ≤ 1000 | –
CC(C)c1onc(-c2c(Cl)cccc2Cl)c1COc1ccc(Oc2ccc(C(=O)NS(C)(=O)=O)cc2)cn1 [Example 4, 4-(6-((3-(2,6-Dichlorophenyl)-5-isopropylisoxazol-4-yl)methoxy)pyridin-3-yloxy)-N-(methylsulfonyl)benzamide] | – | ≤ 1000 | solubility at 20 h [3]: 114 µM (≈ 65.7 µg/mL); half-life [4]: 30 min; microsomal CLint [4]: 153 µL/min/mg; melting point: 182 to 184 °C
CC(=O)Oc1ccccc1C(=O)O [acetylsalicylic acid] | – | – | Aqueous solubility, reported literature value [5]: at least 2.17 mg/ml
CC(C)c1onc(-c2c(Cl)cccc2Cl)c1COc1ccc(/C=C/c2cccc(C(=O)O)c2)c(Cl)c1 [Compound B, reference compound] | 7 | – | –
